The values below come from patent US20250214925A1, “CATIONIC LIPID, LIPOSOME, LIPID NANOPARTICLE, AND USE” (CARCELL BIOPHARMA LTD., priority 2022, published 2025).

One data set relates to mice. Kind of data set: In vivo delivery of Ffluc mRNA LNP in mice, intravenous administration, luminescence relative to MC3. Particulars: fold change in luminescence intensity relative to MC3; 0.06 mg/kg tail vein; 6 h after injection. More on the design: species or system mice (female Balb/C). How it is done:
The prepared encapsulation solution was applied to mice in the following manner, and its delivery efficiency in mice was tested. Among them, DLin-MC3-DMA (MC3) was a cationic liposome for delivering small nucleic acids that was approved by the FDA for marketing in 2018, which has high nucleic acid drug delivery efficiency and biosafety, and was usually used as the industry gold standard in the screening process of cationic lipids. In the evaluation of mice experiments, the ratio of nucleic acid delivery efficiency normalized to MC3 was greater than 0.1, which was considered to be a cationic lipid with high delivery efficiency.
1. The LNP solution was diluted with 50 mM TBS, pH 7.4 to a concentration of 0.1 mg/mL mRNA.
2. The mice involved in this study were female Balb/C, weighing 18-22 g, 6-8 weeks old, with 5 mice in each group.
3. The dosing solution was kept at 4° C. prior to injection.
4. Each mice received 0.06 mg/kg via tail vein injection.
5. The mice were injected intraperitoneally with 200 μL of 1.5 mg/mL D-luciferin solution 6 h after injection.
6. The in vivo luminescence images of the mice were obtained using the IVIS system (Aniview).
7. The luminescence intensity of each mice was measured using Aniview software.
8. MC3 lipid nanoparticles were used as a positive control. The in vivo efficacy of each cationic lipid tested was recorded as the fold change in luminescence intensity relative to MC3 (ratio normalized to MC3).

The nature of data set [1]: mRNA encapsulation efficiency of LNP by Ribogreen assay. The class given is physicochemical. Particulars: LNP: 50% cationic lipid, 38.5% cholesterol, 10% DSPC, 1.5% DMG-PEG2000; Ffluc mRNA. The protocol:
(§1) 1. The cationic lipid (50 mg/mL) prepared in the above examples of the present disclosure, cholesterol (20 mg/mL), DSPC (20 mg/mL) and DMG-PEG2000 (20 mg/mL) were dissolved in ethanol, and the solution was placed in a 55° C. metal thermostatic bath as needed to aid dissolution, to obtain a lipid mixture with the following molar composition: 1.5% DMG-PEG2000, 50% cationic lipid, 38.5% cholesterol, and 10% DSPC.
(§2) 2. The mRNA encoding Ffluc was diluted with 10 mM pH 4.0 citrate buffer to prepare a 0.2 mg/mL mRNA solution.
(§3) 3. The lipid mixture prepared in step 1 was mixed with the mRNA solution prepared in step 2 using a syringe pump with a tee at a total flow rate of 40 mL/min.
(§4) 4. The LNP mixture was collected after the three-way mixing and placed in a dialysis bag with a molecular weight cut-off of 100 KDa.
(§5) 5. The LNP mixture was dialyzed overnight against 50 mM Tris-buffered saline, pH 7.4.
(§6) 6. Sieving, and subsequent measurement of the sieved LNP to measure the PDI of the LNP by dynamic laser light scattering; to measure the mRNA encapsulation efficiency and concentration by Ribogreen assay; and to measure the pKa by TNS-α assay.

The nature of data set [2]: LNP size and PDI by dynamic laser light scattering. It counts as physicochemical. Particulars: LNP: 50% cationic lipid, 38.5% cholesterol, 10% DSPC, 1.5% DMG-PEG2000; Ffluc mRNA. The protocol:
as §1, §2, §3, §4, §5, §6

On to `CCCCCCCC/C(=C/C(=O)OCCCCCCN(CCCO)CCCCCCOC(=O)/C=C(\CCCCC)CCCCCCCC)CCCCC` [CPL-047, ((3-hydroxypropyl)azanediyl)bis(hexane-6,1-diyl) (2E,2′E)-bis(3-pentylundec-2-enoate)], for which, in the data set with mice, the “In Vivo Efficacy Normalized To Mc3 In Mice (Intravenous Injection)” value came out at 1.59. For the same compound, the “Encapsulation Rate” value in data set [1] was determined as 96%. Besides, in data set [2], the PDI worked out at 0.25 and the “Size (nm)” value is listed as 114.7 nm.

Regarding `CCCCC/C=C\C/C=C\CCCCCCCC(=O)OCC(COC(=O)/C=C(\CCCC)CCCCC)COC(=O)OCCCN(C)C` (stereo not shown) [CPL-221, 3-(((E)-3-butyloct-2-enoyl)oxy)-2-((((3-(dimethylamino)propoxy)carbonyl)oxy)methyl)propyl(9Z,12Z)-octadeca-9,12-dienoate], the “In Vivo Efficacy Normalized To Mc3 In Mice (Intravenous Injection)” value in the data set with mice is given as 0.44. The “Encapsulation Rate” value in data set [1] was 96%. Moreover, in data set [2], the PDI is recorded as 0.0453 and the “Size (nm)” value was found to be 82.01 nm.

Regarding `CCCCC/C=C\C/C=C\CCCCCCCC(=O)OCC(COC(=O)C=C(CCCCCCCCCC)CCCCCCCCCC)COC(=O)OCCCCN(C)C` (stereo not shown) [CPL-256, 3-((3-decyltridec-2-enoyl)oxy)-2-((((4-(dimethylamino)butyloxy)carbonyl)oxy)methyl)propyl(9Z,12Z)-octadeca-9,12-dienoate], the “In Vivo Efficacy Normalized To Mc3 In Mice (Intravenous Injection)” value with mice was 0.63. The “Encapsulation Rate” value in data set [1] was determined as 95%. In data set [2], the PDI turned out to be 0.1009 and the “Size (nm)” value was determined as 83.7 nm.

Turning to `CCCCC/C=C\C/C=C\CCCCCCCC(=O)OCC(COC(=O)/C=C(/CCCC)CCCCCC)COC(=O)OCCCN1CCN(C)CC1` (stereo not shown) [CPL-394, 3-(((Z)-3-butylnon-2-enoyl)oxy)-2-((((3-(4-methylpiperazin-1-y)propoxy)carbonyl)oxy)methyl)propyl(9Z,12Z)-octadeca-9,12-dienoate], the “In Vivo Efficacy Normalized To Mc3 In Mice (Intravenous Injection)” value with mice was found to be 0.13. The “Encapsulation Rate” value in data set [1] was determined as 97%. Moreover, in data set [2], the PDI is 0.1069 and the “Size (nm)” value was found to be 95.77 nm.

Turning to `CCCCCC/C(=C/C(=O)OCCCCCCCN(CCCO)CCCCCCCOC(=O)/C=C(\CCCCC)CCCCCC)CCCCC` [CPL-090, ((3-hydroxypropyl)azanediyl)bis(heptane-7,1-diyl) (2E,2′E)-bis(3-pentylnon 2-enoate)], the “In Vivo Efficacy Normalized To Mc3 In Mice (Intravenous Injection)” value in the data set on mice is reported as 2.02. The “Encapsulation Rate” value in data set [1] is 94%. In data set [2], the PDI is given as 0.1615 and the “Size (nm)” value is on record as 85.28 nm.

`CCCCCCCC/C(=C/C(=O)OCCCCCN(CCCO)CCCCCOC(=O)/C=C(\CCCC)CCCCCCCC)CCCC` [CPL-043, ((3-hydroxypropyl)azanediyl)bis(pentane-5,1-diyl)(2E,2′E)-bis(3-butylundec-2-enoate)]: the “In Vivo Efficacy Normalized To Mc3 In Mice (Intravenous Injection)” value in the data set with mice is 1.58. The “Encapsulation Rate” value in data set [1] is on record as 95%. In addition, in data set [2], the PDI stood at 0.1723 and the “Size (nm)” value is 77.48 nm.

In the case of “((3-hydroxypropyl)azanediyl)bis(butane-4,1-diyl) (2E,2′E)-bis(2-hexylidenedecanoate) [CPL-025]”, the “In Vivo Efficacy Normalized To Mc3 In Mice (Intravenous Injection)” value with mice is given as 1.34. Further, the “Encapsulation Rate” value in data set [1] is given as 97%. In data set [2], the PDI is on record as 0.2 and the “Size (nm)” value amounted to 92.1 nm.

In the case of `CCCCCCCC/C(=C/C(=O)OCCCCCN(CCCCO)CCCCCOC(=O)/C=C(\CCCCCC)CCCCCCCC)CCCCCC` [CPL-003, ((4-hydroxybutyl)azanediyl)bis(pentane-5,1-diyl)(2E,2′E)-bis(3-hexylundec-2-enoate)], the “In Vivo Efficacy Normalized To Mc3 In Mice (Intravenous Injection)” value with mice is recorded as 1.55. In addition, the “Encapsulation Rate” value in data set [1] was determined as 92%. For the same compound, in data set [2], the PDI amounted to 0.205 and the “Size (nm)” value is reported as 98 nm.

As for `CCCCC/C=C\C/C=C\CCCCCCCC(=O)OCC(COC(=O)/C=C(\CCCC)CCCCCCC)COC(=O)OCC1CCN(C)C1` (stereo not shown) [CPL-338, 3-(((E)-3-butyldec-2-enoyl)oxy)-2-(((((1-methylpyrrolidin-3-yl)methoxy)carbonyl)oxy)methyl)propyl(9Z,12Z)-octadeca-9,12-dienoate], in the data set with mice, the “In Vivo Efficacy Normalized To Mc3 In Mice (Intravenous Injection)” value amounted to 0.52. In addition, the “Encapsulation Rate” value in data set [1] is recorded as 99%. In addition, in data set [2], the PDI came to 0.1084 and the “Size (nm)” value turned out to be 83.4 nm.

As to `CCCCC/C=C\C/C=C\CCCCCCCC(=O)OCC(COC(=O)C=C(CCCCCCCCCC)CCCCCCCCCC)COC(=O)OCC1CCN(CC)CC1` (stereo not shown) [CPL-454, 3-((3-decyltridec-2-enoyl)oxy)-2-(((((1-ethylpiperidin-4-yl)methoxy)carbonyl)oxy)methyl)propyl(9Z,12Z)-octadeca-9,12-dienoate], the “In Vivo Efficacy Normalized To Mc3 In Mice (Intravenous Injection)” value with mice was 0.88. In addition, the “Encapsulation Rate” value in data set [1] was 99%. In data set [2], the PDI amounted to 0.1315 and the “Size (nm)” value is recorded as 83.51 nm.

Consider `CCCCCCCC/C(=C/C(=O)OCCCCCCN(CCCO)CCCCCCOC(=O)/C=C(\CCC)CCCCCCCC)CCC` [CPL-061, ((3-hydroxypropyl)azanediyl)bis(hexane-6,1-diyl) (2E,2′E)-bis(3-propylundec-2-enoate)], for which, in the data set on mice, the “In Vivo Efficacy Normalized To Mc3 In Mice (Intravenous Injection)” value worked out at 1.06. Further, the “Encapsulation Rate” value in data set [1] is 94%. Moreover, in data set [2], the PDI came to 0.1612 and the “Size (nm)” value was 94.04 nm.

Turning to `CCCCC/C=C\C/C=C\CCCCCCCC(=O)OCC(COC(=O)/C=C(\CCCC)CCCCCCCC)COC(=O)OCC1CCN(C)C1` (stereo not shown) [CPL-329, 3-(((E)-3-butylundec-2-enoyl)oxy)-2-(((((1-methylpyrrolidin-3-yl)methoxy)carbonyl)oxy)methyl)propyl(9Z,12Z)-octadeca-9,12-dienoate], the “In Vivo Efficacy Normalized To Mc3 In Mice (Intravenous Injection)” value in the data set with mice amounted to 0.33. The “Encapsulation Rate” value in data set [1] turned out to be 97%. Besides, in data set [2], the PDI worked out at 0.0596 and the “Size (nm)” value is on record as 75.57 nm.

With “((3-hydroxypropyl)azanediyl)bis(butane-4,1-diyl)(2E,2′E)-bis(3-butylundec-2-enoate) [CPL-021]”, the “In Vivo Efficacy Normalized To Mc3 In Mice (Intravenous Injection)” value in the data set with mice is given as 0.75. Moreover, the “Encapsulation Rate” value in data set [1] was found to be 95%. Moreover, in data set [2], the PDI was 0.0729 and the “Size (nm)” value is 69.64 nm.

In the case of `CCCCCCC/C(=C/C(=O)OCCCCCN(CCCO)CCCCCOC(=O)/C=C(\CCCC)CCCCCCC)CCCC` [CPL-052, ((3-hydroxypropyl)azanediyl)bis(pentane-5,1-diyl) (2E,2′E)-bis(3-butyldec-2-enoate)], the “In Vivo Efficacy Normalized To Mc3 In Mice (Intravenous Injection)” value in the data set with mice stood at 1.46. In data set [1], the “Encapsulation Rate” value is given as 93%. In addition, in data set [2], the PDI is on record as 0.1162 and the “Size (nm)” value is given as 90.76 nm.

For the compound `CCCCCCC/C(=C/C(=O)OCCCCCCCCCCCN(CCCO)CCCCCCCCCCCOC(=O)/C=C(\CCCC)CCCCCCC)CCCC` [CPL-184, ((3-hydroxypropyl)azanediyl)bis(undecane-11,1-diyl) (2E,2′E)-bis(3butyldec-2-enoate)], the “In Vivo Efficacy Normalized To Mc3 In Mice (Intravenous Injection)” value with mice stood at 0.98. Moreover, in data set [1], the “Encapsulation Rate” value stood at 94%. In data set [2], the PDI is 0.173 and the “Size (nm)” value turned out to be 84.6 nm.

With `CCCCC/C=C\C/C=C\CCCCCCCC(=O)OCC(COC(=O)/C=C(/CCCCCCCC)CCCCCCCCCC)COC(=O)OCC1CCN(CC)CC1` (stereo not shown) [CPL-453], the “In Vivo Efficacy Normalized To Mc3 In Mice (Intravenous Injection)” value in the data set with mice was found to be 0.82. The “Encapsulation Rate” value in data set [1] came out at 98%. Also, in data set [2], the PDI was 0.0653 and the “Size (nm)” value is recorded as 81.2 nm.
